Entries after “also recorded” stand apart in the source; their conditions may differ.
Columns and labels:
AR = assay: ARE-luciferase assay in cells expressing ARE-luciferase (enantiomer pairs); assay type: cell-based; conditions: 10 μM mixture + 1 nM R1881, 24 h
Excerpt: (§1) To test for corresponding transcriptional activation, we performed assays in cells expressing ARE-luciferase. […] Next, we examined gene expression in VCaP cells, a hormone-responsive but independent model of CRPC highly expressing AR.
(§2) PC3 and VCaP cell lines were obtained from ATCC and cultured as recommended. Generation and culture of PC3 GFP-AR cells were described previously (14). ARE-luciferase cells were generated using Cignal Lenti AR Reporter (Qiagen). Cell lines were authenticated using NIST-approved short tandem repeat DNA profiling and tested negative for mycoplasma. Drug treatments were conducted after overnight culture in phenol red-free media supplemented with charcoal:dextran stripped FBS.
(§3) Luminometer Assays. For ARE-luciferase, luciferase substrate was added to lysed cells after 24-h treatment. For viability, cells were lysed with CellTiter-Glo 3D Cell Viability Assay (Promega) after 6 d of treatment. Measurements were performed in 96-well plates (Corning) using a GloMax 96 Microplate Luminometer (Promega).

AR T878A = target: T1, AR T878A (Homo sapiens, UniProt P10275, T878A); assay: cell-based; assay type: cell-based
T1 construct: LNCaP cells expressing AR T878A; endogenous in cells; host or cells: LNCaP-luc (LNCaP stably carrying the Cignal Lenti AR Reporter)
T1 sequence (P10275 1-920 T878A): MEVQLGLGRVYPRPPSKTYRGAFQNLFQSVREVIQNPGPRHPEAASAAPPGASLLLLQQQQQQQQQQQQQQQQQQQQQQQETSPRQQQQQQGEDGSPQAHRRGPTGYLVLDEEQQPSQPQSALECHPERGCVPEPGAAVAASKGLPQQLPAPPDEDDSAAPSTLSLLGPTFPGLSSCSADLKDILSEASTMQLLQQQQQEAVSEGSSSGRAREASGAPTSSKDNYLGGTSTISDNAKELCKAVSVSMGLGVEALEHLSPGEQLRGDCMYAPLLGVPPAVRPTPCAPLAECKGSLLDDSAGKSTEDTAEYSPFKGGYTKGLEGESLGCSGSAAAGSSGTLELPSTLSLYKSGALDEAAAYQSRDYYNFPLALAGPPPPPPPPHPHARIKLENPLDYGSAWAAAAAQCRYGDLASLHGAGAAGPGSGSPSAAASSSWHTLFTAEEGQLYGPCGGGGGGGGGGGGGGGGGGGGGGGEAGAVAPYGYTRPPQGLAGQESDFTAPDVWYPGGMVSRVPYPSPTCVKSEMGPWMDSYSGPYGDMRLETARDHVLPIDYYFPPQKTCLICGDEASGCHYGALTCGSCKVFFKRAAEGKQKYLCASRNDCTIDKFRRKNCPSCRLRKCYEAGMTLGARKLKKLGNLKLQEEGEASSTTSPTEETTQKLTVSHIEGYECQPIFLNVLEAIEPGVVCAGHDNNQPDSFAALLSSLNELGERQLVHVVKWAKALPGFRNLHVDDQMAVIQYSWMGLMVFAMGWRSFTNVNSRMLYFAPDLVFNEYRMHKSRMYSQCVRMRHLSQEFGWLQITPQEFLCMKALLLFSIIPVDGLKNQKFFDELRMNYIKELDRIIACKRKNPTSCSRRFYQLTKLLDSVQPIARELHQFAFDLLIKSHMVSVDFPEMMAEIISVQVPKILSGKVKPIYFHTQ
Excerpt: We generated a LNCaP cell line stably expressing luciferase controlled by androgen response elements (ARE-luciferase).
Cell Culture and Treatments. The LNCaP cell line were obtained from ATCC, cultured in RPMI1640 (Corning) supplemented with 10% heat-inactivated GemCell bovine serum (Gemini Bio-Products) and Penicillin-Streptomycin (Gemini Bio-Products). Cell lines stably expressing ARE-luciferase (LNCaP-luc) was generated using Cignal Lenti AR Reporter (Qiagen) and was continuously cultured with 500 ng/mL Puromycin (Gibco) for positive selection. Cells were maintained at 37° C. in a humidified incubator with 5% carbon dioxide. All cell lines were authenticated using NIST approved short tandem repeat (STR) DNA profiling performed by the University of Arizona Genetics Core and routinely tested negative for mycoplasma.
Luciferase assay. LNCaP-luc cells were seeded in clear flat bottom white polystyrene 96-well plates (Corning) at a density of 12,000 cells/well. […] Dose-response curves were fit using the delta method and t-distribution (n=1). Compounds are tested up to 10 μM.

LNCaP cells = assay: LNCaP cell viability assay (CellTiter-Glo); assay type: cell-based; conditions: 1 and 10 μM drug + 60 pM R1881, 5 days
Procedure: LNCaP cell viability assay. Cells were seeded into 96-well fibronectin coated (1 ug/cm^2) plates (CellCarrier, PerkinElmer) at a density of 5,000 cells/well. […] Drug-treated cells were lysed with CellTiter-Glo 3D Cell Viability Assay (Promega) and transferred to white 96-well plates (Corning). Luminescence was measured utilizing GloMax 96 Microplate Luminometer (Promega). Analysis was conducted in the R statistical environment (v 3.6.0). […] Visualizations were facilitated by the ggplot2 package (v3.2.1), with standard error (S.E.) shown where appropriate.

VCaP cells = assay: VCaP viability assay (CellTiter-Glo); assay type: cell-based
Procedure: as §2, §3

[1] = Microsome stability assay; assay type: in vitro ADME, human; conditions: for toxic metabolite BMS-501949 detected in LCMS: 8 h incubation, o-fluoro-BMS-501949 for EITM-1707
Procedure: Microsome stability assays. In vitro metabolism was determined as described previously. Specifically, to measure metabolism of parent compounds, the higher throughput protocol was applied, in which 0.5 mg/ml pooled human liver microsomes (Sigma) were mixed with 1 μM drugs and phosphate buffer (0.1 M, pH 7.4) in 96-well plates. Enzymatic reactions were started by adding 1 mM NADPH (Sigma Aldrich) followed by incubation at 37° C. Fractions were quenched by transfer to ice-cold acetonitrile after the indicated incubation times. Samples were analyzed using liquid chromatography-mass spectrometry (LC/MS-MS). Rates of intrinsic clearance were determined from the amount of the parent compound consumed per min per mg of microsomal protein as described previously. To analyze accumulating metabolites, the basic protocol was used, and microsomes were incubated with 10 μM drugs for 8 h.

[2] = test system: AR-regulated genes in VCaP cells; assay: RT-qPCR array of AR target genes in VCaP cells; assay type: cell-based; conditions: 82 AR target genes, vs NTC and DHT
Procedure: as §1
RT-qPCR Array. RNA was isolated using the Illustra RNAspin Mini Kit (GE Healthcare). RNA was transcribed to cDNA using RT2 First Strand Kit (Qiagen). RT-qPCR was performed using Biorad CFX Connect on a RT2 Profiler PCR Array Human Androgen Receptor Signaling Targets (Qiagen).

SMILES	(S)-enantiomer contamination that halved the drug effect, ARE-luciferase (AR; 95% CI (2.1%, 2.9%))	(S)-enantiomer contamination that canceled out the antagonist effect, ARE-luciferase (AR; 95% CI (6.0%, 12.0%))	AR agonism / antagonism in LNCaP ARE-luciferase, in words (AR T878A)	EC50 (AR T878A)	Emax (AR T878A; LNCaP)	LNCaP proliferation / viable cells, in words (LNCaP cells)	R1881-induced growth, in words (VCaP cells; 10 μM drug + 1 nM R1881, 6-d treatment)	IC50 (VCaP cells; Homo sapiens, VCaP)	toxic metabolite BMS-501949 detected in LCMS ([1]; 10 μM drug)	toxic metabolite BMS-501949 detected in LCMS ([1]; 10 μM drug, listed as (R)-EITM-1707)	active metabolite detected in LCMS ([1]; Unnamed metabolite (predicted active) for EITM compounds, BMS-570511 for BMS-641988, 10 μM drug, 8 h)	half-life at 1 μM ([1]; human, pooled human liver microsomes, pH 7.4, liver microsomes, 1 μM drug, read-out: T½)	microsomal CLint at 1 μM ([1]; human, pooled human liver microsomes, pH 7.4, liver microsomes, read-out: rate of intrinsic clearance)	AR-dependent gene expression, in words [2]
C[C@@]12O[C@@](C)(C[C@@H]1NC(=O)c1cc[nH]n1)[C@@H]1C(=O)N(c3ccc(C#N)c(C(F)(F)F)c3)C(=O)[C@@H]12 [(S)-EITM-1702, N-((3aS,4S,5S,7S,7aR)-2-(4-cyano-3-(trifluoromethyl)phenyl)-4,7-dimethyl-1,3-dioxooctahydro-1H-4,7-epoxyisoindol-5-yl)-1H-pyrazole-3-carboxamide]	2.5%	9%	–	–	–	–	–	–	–	–	–	–	–	–
CC(O)c1cc(C(=O)N[C@@H]2C[C@@]3(C)O[C@]2(C)[C@@H]2C(=O)N(c4ccc(C#N)c(C(F)(F)F)c4F)C(=O)[C@@H]23)n[nH]1 (stereo partly drawn) [EITM-1707, N-((3aR,4R,5R,7R,7aS)-2-(4-cyano-2-fluoro-3-(trifluoromethyl)phenyl)-4,7-dimethyl-1,3-dioxooctahydro-1H-4,7-epoxyisoindol-5-yl)-5-(1-hydroxyethyl)-1H-pyrazole carboxamide]	–	–	pure antagonists	940 nM	13%	inhibit LNCaP proliferation; also recorded: inhibited the growth of LNCaP prostate cancer cells	visibly suppressed R1881-induced growth	410 nM	not detected	no	yes	47.3 min	10.3 µL/min/mg	down-regulated AR-dependent gene expression
